The test system of assay [1] is BaF3. Nature of the assay: PROTAC activity at VHL/KIF5B-RET (unknown origin) expressed in mouse BaF3 cells assessed as induction of RET degradation at 10 nM measured after 6 hrs by Western blot analysis relative to control. The class given is cell-based. On the technique in general: Immunoblotting shows a protein as a band on a membrane.
The test system of assay [2] is BaF3. Nature of the assay: PROTAC activity at VHL/KIF5B-RET (unknown origin) expressed in mouse BaF3 cells assessed as induction of RET degradation at 100 nM measured after 6 hrs by Western blot analysis relative to control. It counts as cell-based.
In assay [3] the test system is BaF3. Briefly: PROTAC activity at VHL/KIF5B-RET (unknown origin) expressed in mouse BaF3 cells assessed as induction of RET degradation at 1000 nM measured after 6 hrs by Western blot analysis relative to control. The class given is cell-based.
The test system of assay [4] is BaF3. Nature of the assay: PROTAC activity at CRBN/KIF5B-RET (unknown origin) expressed in mouse BaF3 cells assessed as induction of RET degradation at 10 nM measured after 6 hrs by Western blot analysis relative to control. The class given is cell-based.
Assay [5] has as its system BaF3. Briefly: PROTAC activity at CRBN/KIF5B-RET (unknown origin) expressed in mouse BaF3 cells assessed as induction of RET degradation at 100 nM measured after 6 hrs by Western blot analysis relative to control. It counts as cell-based.
Assay [6] deals with BaF3. Nature of the assay: PROTAC activity at CRBN/KIF5B-RET (unknown origin) expressed in mouse BaF3 cells assessed as induction of RET degradation at 1000 nM measured after 6 hrs by Western blot analysis relative to control. It counts as cell-based.
Assay [7] concerns BaF3. Briefly: Antiproliferative activity against mouse BaF3 cells stably expressing KIF5B-RET fusion protein incubated for 72 hrs by CCK-8 assay. The conditions noted are these: BaF3, 72 h. The class given is functional, cell-based. (In general: Tetrazolium assays rely on reduction of a dye to a coloured formazan, in cell work by metabolically active cells.)
The subject of assay [8] is BaF3. Briefly: Antiproliferative activity against mouse BaF3 cells stably expressing KIF5B-RET-G810C mutant incubated for 72 hrs by CCK-8 assay. The conditions noted are these: BaF3, 72 h. The class given is functional, cell-based.
In assay [9] the test system is BaF3. Briefly: Antiproliferative activity against mouse BaF3 cells stably expressing KIF5B-RET-G810R mutant incubated for 72 hrs by CCK-8 assay. The class given is functional, cell-based. The settings on record: BaF3, 72 h.
For assay [10], the system named is BaF3. Briefly: Antiproliferative activity against mouse BaF3 cells stably expressing KIF5B-RET-V804M mutant incubated for 72 hrs by CCK-8 assay. The class given is functional, cell-based. The conditions noted are these: BaF3, 72 h.
Assay [11] deals with BaF3. Nature of the assay: Antiproliferative activity against mouse BaF3 cells stably expressing KIF5B-RET-V804L mutant incubated for 72 hrs by CCK-8 assay. The class given is functional, cell-based. The conditions noted are these: BaF3, 72 h.
Assay [12] has as its system BaF3. Nature of the assay: Antiproliferative activity against mouse BaF3 cells stably expressing KIF5B-RET-G810S mutant incubated for 72 hrs by CCK-8 assay. The class given is functional, cell-based. The conditions noted are these: BaF3, 72 h.
In assay [13] the test system is BaF3. Nature of the assay: Antiproliferative activity against mouse BaF3 cells stably expressing CCDC6-RET incubated for 72 hrs by CCK-8 assay. It counts as functional, cell-based. The conditions noted are these: BaF3, 72 h.
For assay [14], the system named is BaF3. Nature of the assay: Antiproliferative activity against mouse BaF3 cells stably expressing CCDC6-RET-V804M mutant incubated for 72 hrs by CCK-8 assay. It counts as functional, cell-based. The settings on record: BaF3, 72 h.
Assay [15] has as its system BaF3. Nature of the assay: Antiproliferative activity against mouse BaF3 cells stably expressing CCDC6-RET-G810C mutant incubated for 72 hrs by CCK-8 assay. It counts as functional, cell-based. The settings on record: BaF3, 72 h.

The term IC50 denotes the midpoint of a concentration-inhibition curve.

As for `COc1ccc(CN2C3CC2CN(c2ccc(-c4cc(-c5cnn(CCOCCOCCC(=O)N[C@H](C(=O)N6C[C@H](O)C[C@H]6C(=O)N[C@@H](C)c6ccc(-c7scnc7C)cc6)C(C)(C)C)c5)cn5ncc(C#N)c45)cn2)C3)cn1`, the Activity was 8% in assay [1], 1% in assay [2] and -5% in assay [3].

On to `COc1ccc(CN2C3CC2CN(c2ccc(-c4cc(-c5cnn(C6CCN(CCCCCCC#Cc7cccc8c7CN(C7CCC(=O)NC7=O)C8=O)CC6)c5)cn5ncc(C#N)c45)cn2)C3)cn1` (centres undefined), for which the Activity came out at 35% in [4], 46% in assay [5] and 47% in assay [6].

Regarding `COc1ccc(CN2C3CC2CN(c2ccc(-c4cc(-c5cnn(CCCCCCC#Cc6cccc7c6CN(C6CCC(=O)NC6=O)C7=O)c5)cn5ncc(C#N)c45)cn2)C3)cn1` (centres undefined), the Activity turned out to be 27% in [4], 31% in [5] and 22% in assay [6].

As for `COc1ccc(CN2C3CC2CN(c2ccc(-c4cc(-c5cnn(CCCCC#Cc6cccc7c6CN(C6CCC(=O)NC6=O)C7=O)c5)cn5ncc(C#N)c45)cn2)C3)cn1` (centres undefined), the Activity in [4] came to 19%; in [5], 23%; in assay [6] it was 21%.

In the case of `COc1ccc(CN2C3CC2CN(c2ccc(-c4cc(-c5cnn(CCCCCCCCCCCCCCC(=O)N[C@H](C(=O)N6C[C@H](O)C[C@H]6C(=O)N[C@@H](C)c6ccc(-c7scnc7C)cc6)C(C)(C)C)c5)cn5ncc(C#N)c45)cn2)C3)cn1`, the Activity was -6% in [1], 3% in [2] and 20% in assay [3].

As for `COc1ccc(CN2C3CC2CN(c2ccc(-c4cc(-c5cnn(CCCCC(=O)N[C@H](C(=O)N6C[C@H](O)C[C@H]6C(=O)N[C@@H](C)c6ccc(-c7scnc7C)cc6)C(C)(C)C)c5)cn5ncc(C#N)c45)cn2)C3)cn1`, the results for the Activity in [1], in assay [2] and in assay [3] were -14%, -11% and -11%, respectively.

Regarding `COc1ccc(CN2C3CC2CN(c2ccc(-c4cc(-c5cnn(CCCCCCCCC#Cc6cccc7c6CN(C6CCC(=O)NC6=O)C7=O)c5)cn5ncc(C#N)c45)cn2)C3)cn1` (centres undefined), the Activity was determined as 17% in assay [4], 47% in assay [5] and 34% in [6].

Turning to `COc1ccc(CN2C3CC2CN(c2ccc(-c4cc(-c5cnn(CCC#Cc6cccc7c6CN(C6CCC(=O)NC6=O)C7=O)c5)cn5ncc(C#N)c45)cn2)C3)cn1` (centres undefined), the Activity in [4] is 15%; in [5], 26%; in assay [6] it was 25%.

Consider `COc1ccc(CN2C3CC2CN(c2ccc(-c4cc(-c5cnn(C6CCN(CCCCCC#Cc7cccc8c7CN(C7CCC(=O)N(C)C7=O)C8=O)CC6)c5)cn5ncc(C#N)c45)cn2)C3)cn1` (centres undefined), for which the IC50 in assay [7] was found to be 20 nM; in [8] it was 700 nM; in assay [9], 1690 nM; in [10] it was 70 nM; in [11], 50 nM; in [12] it was 240 nM. Further, the IC50 is 10 nM in [13], 20 nM in [14] and 100 nM in [15].

Take `COc1ccc(CN2C3CC2CN(c2ccc(-c4cc(-c5cnn(CCCCCCC(=O)N[C@H](C(=O)N6C[C@H](O)C[C@H]6C(=O)N[C@@H](C)c6ccc(-c7scnc7C)cc6)C(C)(C)C)c5)cn5ncc(C#N)c45)cn2)C3)cn1`: the Activity turned out to be 16% in [1], 49% in [2] and 51% in assay [3].

Take `COc1ccc(CN2C3CC2CN(c2ccc(-c4cc(-c5cnn(C6CCN(CC(=O)N7CCN(c8ccc9c(c8)C(=O)N(C8CCC(=O)NC8=O)C9=O)CC7)CC6)c5)cn5ncc(C#N)c45)cn2)C3)cn1` (centres undefined): the Activity in assay [4] was 30%; in assay [5], 34%; in assay [6], 32%.

As for `COc1ccc(CN2C3CC2CN(c2ccc(-c4cc(-c5cnn(CCCCCCCCC(=O)N[C@H](C(=O)N6C[C@H](O)C[C@H]6C(=O)N[C@@H](C)c6ccc(-c7scnc7C)cc6)C(C)(C)C)c5)cn5ncc(C#N)c45)cn2)C3)cn1`, the Activity in assay [1] was found to be 1%; in assay [2] it was 34%; in assay [3], 39%.

As for `COc1ccc(CN2C3CC2CN(c2ccc(-c4cc(-c5cnn(C6CCN(CCCCCCCC#Cc7cccc8c7CN(C7CCC(=O)NC7=O)C8=O)CC6)c5)cn5ncc(C#N)c45)cn2)C3)cn1` (centres undefined), the Activity in assay [4] was 12%; in assay [5] it was 16%; in assay [6] it was 30%.

As to `COc1ccc(CN2C3CC2CN(c2ccc(-c4cc(OCC(C)(C)O)cn5ncc(C#N)c45)cn2)C3)cn1` [SELPERCATINIB], the IC50 is 690 nM in [8]; 1060 nM in assay [9]; 30 nM in assay [11]; 570 nM in assay [12]; 50 nM in [14]; 350 nM in assay [15].

As for `COc1ccc(CN2C3CC2CN(c2ccc(-c4cc(-c5cnn(C6CCN(CCCCC#Cc7cccc8c7CN(C7CCC(=O)NC7=O)C8=O)CC6)c5)cn5ncc(C#N)c45)cn2)C3)cn1` (centres undefined), the Activity in [4] turned out to be 16%; in assay [5], 42%; in assay [6], 48%.

Take `COc1ccc(CN2C3CC2CN(c2ccc(-c4cc(-c5cnn(C6CCN(CC#Cc7cccc8c7CN(C7CCC(=O)NC7=O)C8=O)CC6)c5)cn5ncc(C#N)c45)cn2)C3)cn1` (centres undefined): the Activity in assay [4] came out at 9%; in assay [5], 7%; in assay [6] it was 14%.

On to `COc1ccc(CN2C3CC2CN(c2ccc(-c4cc(-c5cnn(C6CCN(C(=O)CN7CCN(c8ccc9c(c8)C(=O)N(C8CCC(=O)NC8=O)C9=O)CC7)CC6)c5)cn5ncc(C#N)c45)cn2)C3)cn1` (centres undefined), for which the Activity worked out at 37% in [4], 49% in [5] and 41% in assay [6].

Turning to `COc1ccc(CN2C3CC2CN(c2ccc(-c4cc(-c5cnn(CCCCCCCCCCC#Cc6cccc7c6CN(C6CCC(=O)NC6=O)C7=O)c5)cn5ncc(C#N)c45)cn2)C3)cn1` (centres undefined), the Activity amounted to 15% in assay [4], 39% in assay [5] and 54% in assay [6].

As for `COc1ccc(CN2C3CC2CN(c2ccc(-c4cc(-c5cnn(C6CCN(CCCC#Cc7cccc8c7CN(C7CCC(=O)NC7=O)C8=O)CC6)c5)cn5ncc(C#N)c45)cn2)C3)cn1` (centres undefined), the Activity in [4] is 19%; in assay [5], 35%; in assay [6], 51%.

For `COc1ccc(CN2C3CC2CN(c2ccc(-c4cc(-c5cnn(CCCCCCCCCCC(=O)N[C@H](C(=O)N6C[C@H](O)C[C@H]6C(=O)N[C@@H](C)c6ccc(-c7scnc7C)cc6)C(C)(C)C)c5)cn5ncc(C#N)c45)cn2)C3)cn1`, the Activity in [1] is 17%; in [2], 39%; in [3], 32%.

(Values after ChEMBL document CHEMBL6087474, “Discovery of an Efficacious RET PROTAC Degrader with Enhanced Antiproliferative Activity against Resistant Cancer Cells Harboring RET Solvent-Front Mutations” (J Med Chem, 2025).)
